Several values for one entry are separate records, joined by “and”; a condition that tells them apart may be missing. Equal values may be shown once.
Assays:
[1] = system: binding between GD3 and 4F6; assay: Inhibition by exogenously added MAPs of binding between GD3 and 4F6 (Example 5(4), FIG. 5); set-up: species or system mouse; conditions: for inhibitory effect of exogenously added sample on binding between GD3 and 4F6 (words, FIG. 5): added simultaneously with 4F6 to GD3 100 ng/well; for order of binding strength to 4F6: deduced from FIG. 5
Procedure: (4) Next, investigation was made as to whether binding between GD3R3 or GD3R4 and 4F6 occurred at the GD3 binding site of 4F6. To the wells of a plate to which GD3 had been immobilized (100 ng/well), each of the MAP samples having a variety of concentrations shown on the X-axis in FIG. 5 and 4F6 (100 μL/well) were simultaneously added, whereby an inhibitory test was performed. The test was performed in triplicate, and the values in the graph are “mean ±SD.”

[2] = system: GD3 antibody 4F6; assay: ELISA of immobilized MAP-form GD3-mimetic peptides with anti-GD3 antibody (Example 3(3)); assay type: binding, mouse; conditions: for ELISA absorbance, Anti-GD3 antibody: MAP form 100 ng/well
Procedure: (§1) A 0.1M NaHCO3 solution containing each of the phage clones obtained in Example 1 (10^11, 10^10, or 10^9 titer/100 μL) was added to the wells of a 96-well microtiter plate (product of Nunc), for immobilization of the phage clones at room temperature for one hour. The supernatant was removed, then the wells were subjected to blocking by use of a blocking solution ([…]; TBS containing 1% BSA, 0.1% skim milk, and 0.02% Tween 20; pH 7.5) at 37° C. for four hours.
(§2) The supernatant was removed, then GD3 antibody 4F6 (100 μL), serving as a primary antibody, was added to each well for reaction under shaking at room temperature for two hours. After completion of reaction, the supernatant was removed, then the wells were washed six times with a washing solution (400 μL for each well, TBS containing 0.05% Tween 20). Subsequently, a secondary antibody (anti-mouse IgG-HRP, product of Santa Cruz Biotechnology, catalogue No. SC-2031, Lot. No. C089) which was diluted 5,000-fold by use of a blocking solution prepared in advance was added to the wells (100 μL to each well) for reaction under shaking at room temperature for one hour. After completion of reaction, the wells were washed four times with a washing solution (400 μL for each well), then a detection reagent (TMB Microwell; product of KPL, Catalogue No. 50-76-04, Lot. No. WF075) was added to the wells (100 μL to each well), and the mixture was allowed to stand for five minutes at room temperature.
(§3) 1N-Hydrochloric acid (100 μL) was added to each well for stopping the reaction. Absorbance of each well was measured at 450 nm and 620 nm, and “OD450-OD620” was calculated. A Multiscan (product of Labosystems) was used in measurement of absorbance. A well in which phages had not been immobilized served as a blank, and the absorbance of each well was determined by subtracting the blank value from the “as-measured” value.
(§4) A 0.1M NaHCO3 solution containing a GD3-mimetic peptide of the invention in the above MAP form (100 ng/100 μL) was added to the wells of a 96-well micro-titer plate, for immobilization at room temperature for one hour. Subsequently, in a manner similar to the ELISA method employed in Example 2, binding affinity of the GD3-mimetic peptide to GD3 antibody 4F6 was investigated.
(§5) Anti-GD2 antibody and anti-OAcGD3 antibody (Cerato, E., et al., Hybridoma, 16(4), 307-316 (1997)) were used as controls (these antibodies were kindly provided by from Dr. Portoukalian).

[3] = system: Anti-OAcGD3 antibody; assay: ELISA of immobilized MAP-form peptides with control anti-OAcGD3 antibody; assay type: binding; conditions: MAP form 100 ng/well
Procedure: as §4, §5

[4] = system: binding between GD3 and 4F6 (anti-GD3 antibody); assay: Inhibition by immobilized MAPs of binding between GD3 and 4F6 (Example 5(3), FIG. 4); set-up: species or system mouse; conditions: immobilized MAP or GD3 absorbs 4F6
Procedure: (3) The binding affinity shown in FIG. 3 was investigated in another method. Briefly, MAP samples having a variety of concentrations shown on the X-axis in FIG. 4 were provided. Each sample was immobilized onto the wells of a 96-well plate, and the wells were allowed to react with 4F6 (100 μL/well) at 4° C. overnight. On the following day, the supernatant (80 μL) was collected and added to the wells of another plate to which GD3 had been immobilized in advance (100 ng/well) for reaction at room temperature for 2 hours. After completion of reaction, the amount of antibody 4F6 that had been condensed with GD3 (i.e., that had not been absorbed by MAP) was detected and quantitatively determined through the method described (2) above, whereby inhibitory effect of MAP on binding of GD3 to 4F6 was investigated. The test was performed in triplicate, and the values in the graph are “mean ±SD.”

[5] = system: GD3 antibody 4F6; assay: ELISA of immobilized phage clones with GD3 antibody 4F6 (Example 2); assay type: binding, mouse; conditions: for absorbance OD450-OD620, binding to GD3 antibody 4F6: phage clone immobilized, duplicate lines
Procedure: as §1, §2, §3

[6] = system: anti-GD3 antibody 4F6; assay: ELISA of MAPs immobilized at various amounts with 4F6 (Example 5(2), FIG. 3); assay type: binding, mouse; conditions: MAPs or GD3 immobilized at various amounts
Description: (1) In a manner similar to that described in Example 3, peptides of N-terminus 9 amino acid residues or C-terminus 9 amino acid residues of GD3R1, GD3R2, GD3R3, or GD3R4. The nomenclature and sequences of respective peptides employed in the present test are shown in FIG. 2 These were employed as multi-antigen peptides (MAPs). (2) In order to extend the research on bonding between the anti-GD3 antibody 4F6 and each of the GD3-mimetic peptides shown in FIG. 1, multi-antigen peptides (MAPs) were subjected to ELISA. MAP samples having a variety of concentrations shown on the X-axis in FIG. 3 were provided, and each sample was immobilized onto the wells of a 96-well plate. Subsequently, the wells were blocked with a blocking solution (TBS supplemented with 1% BSA, 0.1% skim milk, and 0.02% Tween 20) at 4° C. overnight. 4F6 (hybridoma supernatant: used in the neat form) was added (100 μL/well) for reaction at room temperature for 2 hours. After completion of reaction, the supernatant was discarded, and the wells were washed with a washing solution (TBS supplemented with 1% FBS and 0.05% Tween 20) six times. Subsequently, the wells were allowed to react with peroxidase-labeled anti-mouse IgG (diluted 1,000-fold with a blocking solution) at room temperature for 2 hours. The wells were again washed with a washing solution four times, and the amount of peroxidase enzyme remaining in each well was detected and quantitatively determined with the substrate TMB, whereby binding of MAP to 4F6 was investigated. The test was performed in triplicate, and the values in the graph are “mean ±SD.”

| Sequence | inhibitory effect of exogenously added sample on binding between GD3 and 4F6 (words, FIG. 5) [1] | order of binding strength to 4F6 [1] | binding to anti-GD3 antibody 4F6, overall conclusion ([1]; taken together, Example 5) | binding to the anti-GD3 antibody [2] | ELISA absorbance, Anti-GD3 antibody ([2]; Serum % 12.50%) | ELISA absorbance, Anti-GD3 antibody ([2]; Serum % 25%) | ELISA absorbance, Anti-GD3 antibody ([2]; Serum % 50%) | ELISA absorbance, Anti-GD3 antibody ([2]; Serum % 100%) | ELISA absorbance, Anti-OAcGD3 antibody ([3]; Serum % 12.50%) | ELISA absorbance, Anti-OAcGD3 antibody ([3]; Serum % 25%) | ELISA absorbance, Anti-OAcGD3 antibody ([3]; Serum % 50%) | ELISA absorbance, Anti-OAcGD3 antibody ([3]; Serum % 100%) | inhibition of GD3 binding to 4F6 by immobilized sample (words, FIG. 4) [4] | absorbance OD450-OD620, binding to GD3 antibody 4F6 ([5]; 10^9 titer/well) | absorbance OD450-OD620, binding to GD3 antibody 4F6 ([5]; 10^11 titer/well) | binding of 4F6 to immobilized sample (words, FIG. 3) [6] | absorbance OD450-OD620, binding to GD3 antibody 4F6 ([5]; 10^10 titer/well) | binding affinity to GD3 antibody 4F6 (words, FIG. 1) ([5]; phage clones) |
| --- | --- | --- | --- | --- | --- | --- | --- | --- | --- | --- | --- | --- | --- | --- | --- | --- | --- | --- |
| GLAPPDYAERFELLS [GD3R3, tested as phage clone, MAP form or peptide] | exhibited inhibitory effect | GD3>GD3R3>GD3R4 | the strongest in binding | stronger bonding to the anti-GD3 antibody | 0.176 | 0.237 | 0.357 | 0.483 | 0.031 | 0.026 | 0.031 | 0.044 | inhibit GD3 from binding to the antibody | 0.05 and 0.086 | 0.094 and 0.108 | in an amount-dependent manner | – | – |
| LAPPRPRSELVFLSV (LAPPRPRSQLVFLSV) [GD3R1, tested as phage clone, MAP form or peptide] | – | – | – | – | 0.083 | 0.127 | 0.137 | 0.263 | 0.04 | 0.041 | 0.046 | 0.053 | – | 0.017 and 0.026 | 0.094 and 0.086 | – | 0.067 and 0.055 | – |
| PHFDSLLYPCELLGC (PHFDSLLYPCQLLGC) [GD3R2, tested as phage clone, MAP form or peptide] | – | – | – | – | 0.055 | 0.105 | 0.159 | 0.264 | 0.021 | 0.023 | 0.027 | 0.038 | – | 0.055 and 0.034 | – | – | 0.128 and 0.109 | – |
| RHAYRSMAEWGFLYS (RHAYRSMAQWGFLYS) [GD3R4, tested as phage clone, MAP form or peptide] | did not | GD3>GD3R3>GD3R4 | – | stronger bonding to the anti-GD3 antibody | 0.144 | 0.229 | 0.309 | 0.381 | 0.045 | 0.043 | 0.047 | 0.061 | inhibit GD3 from binding to the antibody | 0.109 and 0.116 | 0.386 and 0.315 | in an amount-dependent manner | 0.14 and 0.102 | strongest binding affinity |

From patent US8017584B2, “GD3-mimetic peptides” (Otsuka Pharmaceutical Co., Ltd., priority 2000, dated 2011)
